# Where a name gives a salt, the structure may show the parent alone. Read-outs that look alike come from different tables or passages of the source.
# Experiments:
# [1] = biological target: T1, PDGFRβ (Homo sapiens (Human), UniProt P09619); test: PDGFRβ enzyme inhibition (ADP-Glo assay); format: biochemical; settings: mean, n = 2 (nintedanib n = 34)
# [2] = PAMPA permeability assay; format: in vitro ADME; settings: for Papp at 5 h, 10 µM: pH 7, 10 μM
# [3] = Pharmacokinetic measurements in rats (i.v., i.t., oral); format: in vivo; settings: rat; for concentration at 0.1 h / concentration at 1.5 h / concentration at 6 h / concentration at 24 h: lung; for concentration at 0.1 h: read-out: lung concentration (nM) at time 0.1 h; for concentration at 1.5 h: read-out: lung concentration (nM) at time 1.5 h; for concentration at 6 h: read-out: lung concentration (nM) at time 6 h; for concentration at 24 h: read-out: lung concentration (nM) at time 24 h; for Kp at 0.1 h / Kp at 1.5 h / Kp at 6 h / Kp at 24 h: lung/plasma
# [4] = biological target: T1, PDGFRβ; test: PDGF-BB induced phosphorylation of PDGFRβ in fibroblasts (MRC5, HTRF); format: cell-based
# [5] = test system: MRC5 cells; test: Cell viability assay in MRC5 cells (MTT)
# [6] = male, CD, other: intra-tracheal
# [7] = male, CD, iv, read-out: lung/plasma ratio at time 0.1 h
# [8] = male, CD, iv, read-out: lung/plasma ratio at time 1.5 h
# [9] = male, CD, iv, read-out: lung/plasma ratio at time 6 h
# [10] = male, CD, iv, read-out: lung/plasma ratio at time 24 h
# [11] = male, CD, other: intra-tracheal, read-out: lung/plasma conc ratio at time 0.1 h
# [12] = i.t. dose 0.1 (nintedanib 0.42)
# [13] = i.t. dose 0.1 (nintedanib 0.42), 1.5 h
# [14] = i.t. dose 0.1 (nintedanib 0.42), 6 h
# [15] = i.t. dose 0.1 (nintedanib 0.42), 24 h
# [16] = i.v. dose 0.1 (nintedanib 0.42)
# [17] = i.v. dose 0.1 (nintedanib 0.42), 1.5 h
# [18] = i.v. dose 0.1 (nintedanib 0.42), 6 h
# [19] = i.v. dose 0.1 (nintedanib 0.42), 24 h
# [20] = MRC5 cells, PDGFBB stimulation, read-out: PDGFBB-induced PDGFRβ phosphorylation in MRC5 cells (IC50)
# T1 sequence (P09619 33-1106): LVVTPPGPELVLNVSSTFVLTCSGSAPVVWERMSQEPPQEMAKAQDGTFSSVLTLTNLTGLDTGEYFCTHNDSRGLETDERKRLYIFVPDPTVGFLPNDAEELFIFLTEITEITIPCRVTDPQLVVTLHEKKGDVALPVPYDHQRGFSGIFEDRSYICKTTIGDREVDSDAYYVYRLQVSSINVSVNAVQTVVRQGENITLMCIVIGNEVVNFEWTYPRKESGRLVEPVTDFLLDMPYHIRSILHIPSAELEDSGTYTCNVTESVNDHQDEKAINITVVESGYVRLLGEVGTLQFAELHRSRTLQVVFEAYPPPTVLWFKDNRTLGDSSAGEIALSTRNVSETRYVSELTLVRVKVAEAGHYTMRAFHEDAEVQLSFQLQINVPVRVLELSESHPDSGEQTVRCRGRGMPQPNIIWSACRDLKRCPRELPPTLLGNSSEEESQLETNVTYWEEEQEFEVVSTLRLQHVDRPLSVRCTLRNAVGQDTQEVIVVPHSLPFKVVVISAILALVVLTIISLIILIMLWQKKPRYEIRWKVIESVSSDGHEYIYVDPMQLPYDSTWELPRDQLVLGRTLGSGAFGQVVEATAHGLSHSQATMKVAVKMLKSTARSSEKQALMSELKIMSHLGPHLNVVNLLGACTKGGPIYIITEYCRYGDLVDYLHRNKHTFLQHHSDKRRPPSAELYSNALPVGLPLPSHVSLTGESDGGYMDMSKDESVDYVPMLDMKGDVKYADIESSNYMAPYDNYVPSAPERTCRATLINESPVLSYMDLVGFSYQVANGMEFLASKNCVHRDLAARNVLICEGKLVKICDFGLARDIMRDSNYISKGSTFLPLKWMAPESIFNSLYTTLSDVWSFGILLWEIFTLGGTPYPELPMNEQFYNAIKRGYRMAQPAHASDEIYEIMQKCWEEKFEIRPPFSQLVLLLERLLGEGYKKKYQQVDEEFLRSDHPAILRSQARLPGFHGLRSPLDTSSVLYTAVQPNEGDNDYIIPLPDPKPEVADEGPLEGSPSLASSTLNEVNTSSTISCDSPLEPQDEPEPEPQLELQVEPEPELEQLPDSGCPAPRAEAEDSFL
structure (smiles),measurement,setting,value
"COC(=O)c1cc2c(cc1C)/C(=C(/Nc1ccc(C(=O)NCC3CCN(C)CC3)cc1)c1ccccc1)C(=O)N2 [Example 3, (Z)-Methyl 5-methyl-3-(((4-(((1-methylpiperidin-4-yl)methyl)carbamoyl)phenyl)amino)(phenyl)methylene)-2-oxoindoline-6-carboxylate, formate]",Ki,[1],0.00686 µM
same,"recovery at 5 hr, 10 μM","[2]; pH 7, PAMPA",92.4%
same,"Papp at 5 h, 10 µM","[2]; pH 7, PAMPA",0.0775 nm/s
same,concentration at 0.1 h,"[3]; male, CD, iv",761 nM
same,concentration at 1.5 h,"[3]; male, CD, iv",700 nM
same,concentration at 6 h,"[3]; male, CD, iv",321 nM
same,concentration at 24 h,"[3]; male, CD, iv",135 nM
same,concentration at 0.1 h,[3]; [6],2600 nM
same,concentration at 1.5 h,[3]; [6],4990 nM
same,concentration at 6 h,[3]; [6],4680 nM
same,concentration at 24 h,[3]; [6],1860 nM
same,Kp at 0.1 h,[3]; [7],38
same,Kp at 1.5 h,[3]; [8],154
same,Kp at 6 h,[3]; [9],120
same,Kp at 24 h,[3]; [10],> 72
same,Kp at 0.1 h,[3]; [11],100
same,Kp at 1.5 h,"[3]; male, CD, other: intra-tracheal, read-out: lung/plasma conc ratio at time 1.5 h",1910
same,Kp at 6 h,"[3]; male, CD, other: intra-tracheal, read-out: lung/plasma conc ratio at time 6 h",2150
same,Kp at 24 h,"[3]; male, CD, other: intra-tracheal, read-out: lung/plasma conc ratio at time 24 h",> 1000
same,Lung conc i.t./i.v. Ratio at time 0.1 h,[3],3
same,Lung conc i.t./i.v. Ratio at time 1.5 h,[3]; 1.5 h,7
same,Lung conc i.t./i.v. Ratio at time 6 h,[3]; 6 h,15
same,Lung conc i.t./i.v. Ratio at time 24 h,[3]; 24 h,14
same,BAL % administered dose at time 0.1 h,[3]; [12],14%
same,BAL % administered dose at time 1.5 h,[3]; [13],1.2%
same,BAL % administered dose at time 6 h,[3]; [14],0.7%
same,BAL % administered dose at time 24 h,[3]; [15],0.3%
same,BAL % administered dose at time 0.1 h,[3]; [16],0.1%
same,BAL % administered dose at time 1.5 h,[3]; [17],0.1%
same,BAL % administered dose at time 6 h,[3]; [18],0.03%
same,BAL % administered dose at time 24 h,[3]; [19],0.02%
same,IC50,[4]; [20],0.0127 µM
same,Cell viability at 100 nM (%),[5],88%
same,Cell viability at 300 nM (%),[5],86.1%
same,Cell viability at 1000 nM (%),[5],79.5%
"COC(=O)c1cc2c(cc1C)/C(=C(/Nc1ccc(C(=O)NCCN3CCNC(=O)C3)cc1)c1ccccc1)C(=O)N2 [Example 9, (Z)-Methyl 5-methyl-2-oxo-3-(((4-((2-(3-oxopiperazin-1-yl)ethyl)carbamoyl)phenyl)amino) (phenyl)methylene)indoline-6-carboxylate]",Ki,[1],0.00789 µM
same,"recovery at 5 hr, 10 μM","[2]; pH 7, PAMPA",72.7%
same,"Papp at 5 h, 10 µM","[2]; pH 7, PAMPA",0.146 nm/s
same,concentration at 0.1 h,"[3]; male, CD, iv",494 nM
same,concentration at 1.5 h,"[3]; male, CD, iv",174 nM
same,concentration at 6 h,"[3]; male, CD, iv",235 nM
same,concentration at 24 h,"[3]; male, CD, iv",502 nM
same,concentration at 0.1 h,[3]; [6],5700 nM
same,concentration at 1.5 h,[3]; [6],8810 nM
same,concentration at 6 h,[3]; [6],10500 nM
same,concentration at 24 h,[3]; [6],10500 nM
same,Kp at 0.1 h,[3]; [7],17
same,Kp at 1.5 h,[3]; [8],55
same,Kp at 6 h,[3]; [9],> 326
same,Kp at 24 h,[3]; [10],> 697
same,Kp at 0.1 h,[3]; [11],> 7890
same,MRT,"[3]; male, CD, plasma, iv",1.1 h
same,clearance,"[3]; male, CD, plasma, iv",5.4 L/h/kg
same,half-life,"[3]; male, CD, plasma, iv",1.1 h
same,Vd,"[3]; male, CD, plasma, iv, read-out: Vss",7 L/kg
same,Lung conc i.t./i.v. Ratio at time 0.1 h,[3],12
same,Lung conc i.t./i.v. Ratio at time 1.5 h,[3]; 1.5 h,51
same,Lung conc i.t./i.v. Ratio at time 6 h,[3]; 6 h,45
same,Lung conc i.t./i.v. Ratio at time 24 h,[3]; 24 h,21
same,i.t. BAV (%),[3]; [12],<40%
same,BAL % administered dose at time 0.1 h,[3]; [12],13.7%
same,BAL % administered dose at time 1.5 h,[3]; [13],5.2%
same,lung/plasma conc ratio at time 1.5 h,[3]; [13],>12197
same,BAL % administered dose at time 6 h,[3]; [14],2.3%
same,lung/plasma conc ratio at time 6 h,[3]; [14],>14485
same,BAL % administered dose at time 24 h,[3]; [15],0.5%
same,lung/plasma conc ratio at time 24 h,[3]; [15],>14483
same,BAL % administered dose at time 0.1 h,[3]; [16],BQL
same,BAL % administered dose at time 1.5 h,[3]; [17],BQL
same,BAL % administered dose at time 6 h,[3]; [18],BQL
same,BAL % administered dose at time 24 h,[3]; [19],BQL
same,Oral BAV (%),[3]; oral dose 3 mg/kg,<2%
same,IC50,[4]; [20],0.0142 µM
same,Cell viability at 100 nM (%),[5],102%
same,Cell viability at 300 nM (%),[5],103.6%
same,Cell viability at 1000 nM (%),[5],97.5%
"COC(=O)c1cc2c(cc1C)/C(=C(/Nc1ccc(C(=O)NC3CCN(C)CC3)cc1)c1ccccc1)C(=O)N2 [Example 18, (Z)-Methyl-5-methyl-3-(((4-((1-methylpiperidin-4-yl)carbamoyl)phenyl)amino)(phenyl)methylene)-2-oxoindoline-6-carboxylate, formate]",Ki,[1],0.00799 µM
same,"recovery at 5 hr, 10 μM",[2]; pH 7,84.5%
same,"Papp at 5 h, 10 µM",[2],0.0383 nm/s
same,concentration at 0.1 h,"[3]; male, CD, iv",638 nM
same,concentration at 1.5 h,"[3]; male, CD, iv",306 nM
same,concentration at 6 h,"[3]; male, CD, iv",201 nM
same,concentration at 0.1 h,[3]; [6],6530 nM
same,concentration at 1.5 h,[3]; [6],5990 nM
same,concentration at 6 h,[3]; [6],2350 nM
same,concentration at 24 h,[3]; [6],4520 nM
same,half-life,"[3]; male, CD, plasma, iv",5.1 h
same,i.t. BAV (%),[3]; [12],39%
same,BAL % administered dose at time 0.1 h,[3]; [12],6.7%
same,BAL % administered dose at time 1.5 h,[3]; [13],2.2%
same,BAL % administered dose at time 6 h,[3]; [14],0.4%
same,BAL % administered dose at time 24 h,[3]; [15],0.3%
same,BAL % administered dose at time 0.1 h,[3]; [16],0.13%
same,BAL % administered dose at time 1.5 h,[3]; [17],0%
same,BAL % administered dose at time 6 h,[3]; [18],BQL
same,BAL % administered dose at time 24 h,[3]; [19],BQL
same,IC50,[4],0.0168 µM
same,Cell viability at 100 nM (%),[5],98.2%
same,Cell viability at 300 nM (%),[5],97.3%
same,Cell viability at 1000 nM (%),[5],91.8%
"COC(=O)c1cc2c(cc1C)/C(=C(/Nc1ccc(C(=O)N3CCC(O)(CN4CCOCC4)CC3)cc1)c1ccccc1)C(=O)N2 [Example 45, (Z)-Methyl-3-(((4-(4-hydroxy-4-(morpholinomethyl)piperidine-1-carbonyl)phenyl)amino)(phenyl)methylene)-5-methyl-2-oxoindoline-6-carboxylate]",Ki,[1],0.0151 µM
same,"recovery at 5 hr, 10 μM","[2]; pH 7, PAMPA",77%
same,"Papp at 5 h, 10 µM","[2]; pH 7, PAMPA",0.893 nm/s
same,IC50,[4]; [20],0.00242 µM
same,Cell viability at 100 nM (%),[5],80.1%
same,Cell viability at 300 nM (%),[5],71.7%
same,Cell viability at 1000 nM (%),[5],62.8%

# Source: US10669235B2, “Indole derivatives and their use as protein kinase inhibitors” (RESPIVERT LIMITED, priority 2016, dated 2020)
